Results published in patent US20150368642A1, “LNA OLIGONUCLEOTIDE CARBOHYDRATE CONJUGATES” (HOFFMANN-LA ROCHE INC., priority 2013, published 2015).
l = locked nucleic acid (LNA); d = 2'-deoxy (DNA)

Assays:
miR-122 = test: LNA antimiR GalNAc conjugates, miR122 knock down in mice; assay type: in vivo, mouse; conditions: for Aldo A and Bckdk mRNA: already in the low dose group (3×0.5 mg/kg), liver; for miR122 knock down in the liver: i.v. days 0, 2 and 4, day 7, compared to parent LNA; for total cholesterol levels: i.v. days 0, 2 and 4, serum pre-dose, day 4 and day 7
Procedure: (§1) An in vivo mouse study was performed using a total of 9 groups of mice (n=5). Each mouse was dosed i.v. on days 0, 2 and 4 with either 0.5 mg/kg or 2 mg/kg or equimolar doses of the GalNAc conjugated LNA's compared to parent LNA compound. A saline control group was included (see study set up in Tab. 1). Serum samples were taken 4 days pre administration, interim at day 4 and at endpoint day 7. Liver and kidney samples were stored in RNA later. Validation of miR122 knock down of miR122 was done as described in Obad Nat Genet. 2011 Mar. 20; 43(4):371-8 (FIG. 17). The cholesterol level in serum were analyzed as described in Elmen J, et al. LNA-mediated microRNA silencing in non-human primates. Nature. 2008; 452:896-899. (FIG. 18) and mRNA levels of two miR122 down regulated genes (Aldo A and Bckdk) were analyzed using standard QPCR assay techniques (FIG. 19). ALT was measured to assess tolerability of the compounds (FIG. 20).

[1] = ALT in final serum (antimiR-122 study); assay type: in vivo, mouse; conditions: mice, final serum day 7
Procedure: Serum analysis for ALT, AST and cholesterol was performed on the “Cobas INTEGRA 400 plus” clinical chemistry platform (Roche Diagnostics), using 10 μl of serum.
as §1

ApoB mRNA = test: Knock down of ApoB mRNA in liver and kidney (qPCR, Example 5); assay type: in vivo, C57BL6/J mice; conditions: mice; for knock down of ApoB mRNA: single iv or sc dose equimolar to 0.25 mg/kg, days 1-7, FIG. 8
Text: (§2) Capital letters are LNA nucleosides (such as beta-D-oxy LNA), lower case letters are a DNA nucleoside. Subscript s represents a phosphorothioate internucleoside linkage (region A). LNA cytosines are optionally 5-methyl cytosine. The 2PO linker (region B) is 5′ to the sequence region A, and comprises of two DNA nucleosides linked by phosphodiester linkage, with the internucleoside linkage between the 3′ DNA nucleoside of region A and the 5′ LNA nucleoside of region A also being phosphodiester. A linkage group (Y) may be used to link the conjugate group, when present, to region B, or A (SEQ ID NO 13 and 11). C57BL6/J mice were injected either iv or sc with a single dose saline or 0.25 mg/kg unconjugated LNA-antisense oligonucleotide (SEQ ID N012) or equimolar amounts of LNA antisense oligonucleotides conjugated to GalNAc1, GalNAc2, or cholesterol (2PO) and sacrificed at days 1-7 according to the table below (experimental design).
(§3) RNA was isolated from liver and kidney and subjected to qPCR with ApoB specific primers and probe to analyse for ApoB mRNA knockdown. The oligonucleotide content was measured using ELISA method and total cholesterol in serum was measured.
C57BL/6JBom female animals, app. 20 g at arrival, were dosed with 10 ml per kg BW (according to day 0 bodyweight) i.v. or s.c. of the compound formulated in saline or saline alone according to the table above.
The animals were anaesthetised with 70% CO2-30% O2 and sacrificed by cervical dislocation according to the above table. One half of the large liver lobe and one kidney were minced and submerged in RNAlater. The other half of liver and the other kidney was frozen and used for tissue analysis. […]
(§4) For each sample 0.5 μg total RNA was adjusted to (10.8 μl) with RNase free H2O and mixed with 2 μl random decamers (50 μM) and 4 μl dNTP mix (2.5 mM each dNTP) and heated to 70° C. for 3 min after which the samples were rapidly cooled on ice. […] Oligonucleotide content in liver and kidney was measured by sandwich ELISA method.

ApoB [2] = test: Non-human primate study, serum ApoB and LDL-C (ApoB conjugates); assay type: in vivo, cynomolgus monkeys; conditions: Example 7; single i.v. dose; FIG. 16
Procedure: (§5) The primary objective for this study is to investigate selected lipid markers over 7 weeks after a single slow bolus injection of anti-PCSK9 and anti-ApoB LNA conjugated to GalNac cluster (Conj2a) to cynomolgus monkeys and assess the potential toxicity of compounds in monkey. The compounds which were prepared in sterile saline (0.9%) at an initial concentration of 0.625 and 2.5 mg/ml).
(§6) Male (PCSK9) or female monkeys (ApoB) monkeys of at least 24 months old are used, and given free access to tap water and 180 g of MWM(E) SQC SHORT expanded diet (Dietex France, SDS, Saint Gratien, France) will be distributed daily per animal. The total quantity of food distributed in each cage will be calculated according to the number of animals in the cage on that day. In addition, fruit or vegetables will be given daily to each animal. The animals will be acclimated to the study conditions for a period of at least 14 days before the beginning of the treatment period. During this period, pre-treatment investigations will be performed. The animals are dosed i.v. at a dose if, for example, 0.25 mg/kg or 1 mg/kg. The dose volume will be 0.4 mL/kg. 2 animals are used per group. After three weeks, the data will be analyzed and a second group of animals using a higher or lower dosing regimen may be initiated—preliminary dose setting is 0.5 mg/kg and 1 mg/kg, or lower than that based on the first data set.
The dose formulations will be administered once on Day 1. Animals will be observed for a period of 7 weeks following treatment, and will be released from the study on Day 51. Day 1 corresponds to the first day of the treatment period. Clinical observations and body weight and food intake (per group) will be recorded prior to and during the study.
The following parameters will be determined for all surviving animals at the occasions indicated below: • full biochemistry panel (complete list below)—on Days −8, 15 and 50, • liver Safety (ASAT, ALP, ALAT, TBIL and GGT only)—on Days 4, 8, 22 and 36, • lipid profile (Total cholesterol, HDL-C, LDL-C and Triglycerides) and Apo-B only—on Days −1, 4, 8, 22, 29, 36, and 43.
Blood (approximately 1.0 mL) is taken into lithium heparin tubes (using the ADVIA 1650 blood biochemistry analyzer): Apo-B, sodium, potassium, chloride, calcium, inorganic phosphorus, glucose, HDL-C, LDL-C, urea, creatinine, total bilirubin (TBIL), total cholesterol, triglycerides, alkaline phosphatase (ALP), alanine aminotransferase (ALAT), aspartate aminotransferase (ASAT), creatine kinase, gamma-glutamyl transferase (GGT), lactate dehydrogenase, total protein, albumin, albumin/globulin ratio.
Other Analysis: WO2011009697 & WO2010142805 provides the methods for the following analysis: qPCR, PCSK9/ApoB mRNA analysis, Other analysis includes PCSK9/ApoB protein ELISA, serum Lp(a) analysis with ELISA (Mercodia No. 10-1106-01), tissue and plasma oligonucleotide analysis (drug content), Extraction of samples, standard- and QC-samples, Oligonucleotide content determination by ELISA. […] There was no indication of hepatotoxicity or nephrotoxicity with the ApoB targeting compounds.

[3] = Oligonucleotide content in liver and kidney by sandwich ELISA (Example 5); assay type: in vivo, C57BL6/J mice; conditions: mice
Text: as §2, with “C57BL6/J mice were injected either iv or sc with a single dose saline or 0.25 mg/kg unconjugated LNA-antisense oligonucleotide (SEQ ID N012) or equimolar amounts of LNA antisense oligonucleotides conjugated to GalNAc1, GalNAc2, or cholesterol (2PO) and sacrificed at days 1-7 according to the table below (experimental design).” left out
RNA was isolated from liver and kidney and subjected to qPCR with ApoB specific primers and probe to analyse for ApoB mRNA knockdown. The oligonucleotide content was measured using ELISA method and total cholesterol in serum was measured. […]
as §4

ApoB [4] = test: Total cholesterol in serum (Example 5); assay type: in vivo, C57BL6/J mice; conditions: mice, iv and sc administration, versus SEQ ID NO 12 and 14, FIG. 9
Text: as §2, with “C57BL6/J mice were injected either iv or sc with a single dose saline or 0.25 mg/kg unconjugated LNA-antisense oligonucleotide (SEQ ID N012) or equimolar amounts of LNA antisense oligonucleotides conjugated to GalNAc1, GalNAc2, or cholesterol (2PO) and sacrificed at days 1-7 according to the table below (experimental design).” left out
as §3
Immediately before sacrifice retro-orbital sinus blood was collected using S-monovette Serum-Gel vials (Sarstedt, Nümbrecht, Germany) for serum preparation. Serum was analyzed for total cholesterol using ABX Pentra Cholesterol CP (Triolab, Brondby, Denmark) according to the manufacturer's instructions.

PCSK9 = test: Non-human primate study, serum PCSK9 protein ELISA; assay type: in vivo; conditions: cynomolgus monkeys, single dose, entire length of the study
Procedure: as §5
as §6, with “During this period, pre-treatment investigations will be performed. The animals are dosed i.v. at a dose if, for example, 0.25 mg/kg or 1 mg/kg. The dose volume will be 0.4 mL/kg. 2 animals are used per group.” left out
The dose formulations will be administered once on Day 1. […] Clinical observations and body weight and food intake (per group) will be recorded prior to and during the study. […]

Substance	Aldo A and Bckdk mRNA (miR-122)	miR122 knock down in the liver (miR-122)	total cholesterol levels (miR-122)	ALT [1]	knock down of ApoB mRNA (ApoB mRNA)	total cholesterol in serum (ApoB [4])	further results
SEQ ID NO 52: 5′-Conj1a^mCsAs^mCsAs^mCsTs^mCs^mC-3′ (CACACTCC; LNA, 5-methyl C, 5' GalNAc Conj1a, chemistry not fully specified)	up regulation of Aldo A and Bckdk mRNA	remarkable improvement of miR122 knock down in the liver	decreased total cholesterol levels	increase in ALT	–	–	–
SEQ ID NO 11: GsCsaststsgsgstsastsTsCsA, GalNAc cluster Conj2a; ApoB (GCATTGGTATTCA; listed as DNA, chemistry not fully specified)	–	–	–	–	knock down of ApoB mRNA better than the unconjugated ApoB LNA	better effect that the unconjugated and the cholesterol conjugated compounds	pharmacology (serum ApoB and LDL-C) (ApoB [2]): did not exhibit significant pharmacology; specific activity (activity relative to liver uptake) ([3]; iv dosing): higher specific activity than GalNAc 1 conjugate
SEQ ID NO 13: GsCsaststsgsgstsastsTsCsA, GalNAc cluster Conj1a; ApoB (GCATTGGTATTCA; sugars from the 5' end l2 d8 l3, all phosphorothioate, methylation of C not given here; GalNAc cluster Conj1a conjugated)	–	–	–	–	knock down of ApoB mRNA better than the unconjugated ApoB LNA	better effect that the unconjugated and the cholesterol conjugated compounds	knock down of ApoB mRNA, iv versus sc dosing (ApoB mRNA; single dose 0.36 mg/kg): iv dosing is better than sc dosing; tissue content of the oligonucleotides, uptake in liver ([3]; iv and sc, FIG. 10): very much uptake in liver
SEQ ID NO 54: 5′-Conj1a^mCsAs^mCsAs^mCsTs^mCs^mCca^mCsAs^mCsAs^mCsTs^mCs^mC-3′ (CACACTCCCACACACTCC; LNA, 5-methyl C, ca linker, 5' GalNAc Conj1a, chemistry not fully specified)	up regulation of Aldo A and Bckdk mRNA	remarkable improvement of miR122 knock down in the liver	decreased total cholesterol levels	tendency to improve	–	–	–
SEQ ID NO 28: AsAsTsgscstsascsasasasasCsCsCsA, GalNAc cluster Conj2a; PCSK9 (AATGCTACAAAACCCA; listed as DNA, chemistry not fully specified)	–	–	–	–	–	–	down regulation of PCSK9 (and LDL-C), onset and duration (PCSK9): rapid and consistent down regulation of PCSK9 and LDL-C throughout the duration of the study
